The record followed here is patent US9018175B2 (Takeda GmbH, priority 2009, dated 2015).

One assay deals with T1, human PDE5 (Homo sapiens, UniProt O76074).
T1 construct: from tissue; host or cells: human platelets from fresh donor blood (10,000 g supernatant of sonicated platelets)
Nature of the assay: Inhibition of PDE5 activity (SPA, [3H]cGMP, platelet lysate). Type of assay: biochemical. The conditions noted are these: PDE5 from human platelet lysate; values given as bins; read-out: PDE5A inhibitory values measured as −logIC50 (converted). How it is done: As a source for human PDE5, platelets are used. For that purpose, 150 ml fresh blood from human donors anticoagulated with citrate [final concentration 0.3% (w/v)] is centrifuged at 200 g for 10 min to obtain the so-called platelet-rich-plasma (PRP) as a supernatant. 1/10 volume of ACD solution (85 mM Na3-citrate, 111 mM D-glucose, 71 mM citric acid, pH 4.4) is added to 9/10 volume of PRP. After centrifugation (1,400 g, 10 min) the cell pellet is resuspended in 3 ml homogenization buffer (NaCl 140 mM, KCl 3.8 mM, EGTA (ethylene glycol tetraacetic acid) 1 mM, MgCl2 1 mM, Tris-HCl 20 mM, beta-mercaptoethanol 1 mM, pH 8.2) plus protease-inhibitor mix giving rise to the final concentrations of 0.5 mM Pefablock (Roche), 10 μM Leupeptin, 5 μM Trypsininhibitor, 2 mM Benzamidin and 10 μM Pepstatin A. The suspension is sonified and thereafter centrifuged for 15 min at 10,000 g. The resulting supernatant (platelet lysate) is used for enzymatic testings.
PDE5 activities were measured in a 96-well platform using SPA (scintillation proximity assay) yttrium silicate beads (RPNQ1050 from GE Healthcare). In a first step the PDE activity operates hydrolysis of either [^3H] cGMP (substrate) into [^3H] 5′GMP. In a second step substrate and product are distinguished following addition of SPA yttrium silicate beads. Indeed, in the presence of zinc sulphate the linear [^3H] […] Close proximity of bound [^3H] […] The test volume is 100 pl and contains 20 mM Tris buffer (pH 7.4), 0.1 mg of BSA (bovine serum albumin)/ml, 5 mM Mg^2+, 1 μM motapizone (PDE3 Inhibitor), 10 nM PDE2 inhibitor 2-(3,4-dimethoxybenzyl)-7-[(1R,2R)-2-hydroxy-1-(2-phenylethyl)propyl]-5-methylimidazo[5,1-f][1,2,4]triazin-4(3H)-one, […] (cyclic guanosine monophosphate) (including about 50,000 cpm of [3H]cGMP as a tracer), 1 pl of the respective compound dilution in dimethylsulfoxide (DMSO) and sufficient PDE5-containing platelet lysat (10,000, g supernatant, see above) to ensure that 10-20 wt % of the cGMP is converted under the said experimental conditions. […] After a preincubation of 5 min at 37° C., the reaction is started by adding the substrate (cGMP) and the assay is incubated for a further 15 min; after that, it is stopped by adding SPA beads (50 pl). In accordance with the manufacturer's instructions, the SPA beads had previously been resuspended in water, but are then diluted 1:3 (v/v) in water; the diluted solution also contains 3 mM […]3-isobutyl-1-methylxanthine (IBMX) to ensure a complete PDE activity stop. After the beads have been sedimented (>30 min), the MTP's are analyzed in commercially available luminescence detection devices. The corresponding IC50 values of the compounds for the inhibition of PDE activity are determined from the concentration-effect curves by means of non-linear regression.

The next assay has as its target T2, PDE4B1 (Homo sapiens, UniProt Q07343).
T2 construct: made in house; host or cells: SF21 insect cells (baculovirus; pCR-Bac vector)
Nature of the assay: Inhibition of PDE4B1 activity (SPA, [3H]cAMP). As to conditions: recombinant PDE4B1 expressed in SF21 cells; 0.5 pM [sic] cAMP; values given as bins; read-out: PDE4B1 inhibitory values measured as −logIC50 (converted). Type of assay: biochemical. How it is done:
The PDE4B1 (GB no. L20966) was a gift of Prof. M. Conti (Stanford University, USA). It was amplified from the original plasmid (pCMV5) via PCR with primers Rb18 (5′-[…]-3′) and Rb10 (5′-[…]-3′) and cloned into the pCR-Bac vector (Invitrogen, Groningen, NL).
The recombinant baculovirus was prepared by means of homologous recombination in SF9 insect cells. The expression plasmids were cotransfected with Baculo-Gold DNA (Pharmingen, Hamburg) using a standard protocol (Pharmingen, Hamburg). Wt virus-free recombinant virus supernatants were selected using plaque assay methods. After that, high-titre virus supernatants were prepared by amplifying 3 times. PDE4B1 was expressed in SF21 cells by infecting 2×10^6 cells/ml with an MOI (multiplicity of infection) between 1 and 10 in the serum-free medium Insect Express Sf9-S2 (PAA, Pasching, Austria). The cells were cultured at 28° C. for 48-72 hours, after which they were pelleted for 5-10 min at 1000×g and 4° C.
The SF21 insect cells were resuspended, at a concentration of approx. 10^7 cells/ml, in ice-cold (4° C.) homogenization buffer (20 mM Tris, pH 8.2, containing the following additions: 140 mM NaCl, 3.8 mM KCl, 1 mM EGTA, 1 mM MgCl2, 10 mM e-mercaptoethanol, 2 mM benzamidine, 0.4 mM Pefablock, 10 pM leupeptin, 10 pM pepstatin A, 5 pM trypsin inhibitor) and disrupted by ultrasonication. The homogenate was then centrifuged for 10 min at 1000, g and the supernatant was stored at −80° C. until subsequent use (see below). The protein content was determined by the Bradford method (BioRad, Munich) using BSA as the standard.
PDEB1 activities were measured in a 96-well platform using SPA (scintillation proximity assay) yttrium silicate beads (RPNQ1050 from GE Healthcare). In a first step the PDE activity operates hydrolysis of either [^3H] cAMP (substrate) into [^3H] 5′AMP. In a second step substrate and product are distinguished following addition of SPA yttrium silicate beads. Indeed, in the presence of zinc sulphate the linear [^3H] […] Close proximity of bound [^3H] […] The test volume is 100 pl and contains 20 mM Tris buffer (pH 7.4), 0.1 mg/ml of BSA, 5 mM Mg^2+, […] (including about 50,000 cpm of [3H]cAMP), 1 pl of the respective substance dilution in DMSO and sufficient recombinant PDE (1000, g supernatant, see above) to ensure that 10-20% of the cAMP is converted under the said experimental conditions. […] After a preincubation of 5 min at 37° C., the reaction is started by adding the substrate (cAMP) and the assays are incubated for a further 15 min; after that, they are stopped by adding SPA beads (50 pl). In accordance with the manufacturer's instructions, the SPA beads had previously been resuspended in water, but were then diluted 1:3 (v/v) in water; the diluted solution also contains 3 mM IBMX to ensure a complete PDE activity stop. After the beads have been sedimented (>30 min), the MTP's are analyzed in commercially available luminescence detection devices. The corresponding IC50 values of the compounds for the inhibition of PDE4B1 activity are determined from the concentration-effect curves by means of non-linear regression.

T2 sequence (Q07343 whole entry): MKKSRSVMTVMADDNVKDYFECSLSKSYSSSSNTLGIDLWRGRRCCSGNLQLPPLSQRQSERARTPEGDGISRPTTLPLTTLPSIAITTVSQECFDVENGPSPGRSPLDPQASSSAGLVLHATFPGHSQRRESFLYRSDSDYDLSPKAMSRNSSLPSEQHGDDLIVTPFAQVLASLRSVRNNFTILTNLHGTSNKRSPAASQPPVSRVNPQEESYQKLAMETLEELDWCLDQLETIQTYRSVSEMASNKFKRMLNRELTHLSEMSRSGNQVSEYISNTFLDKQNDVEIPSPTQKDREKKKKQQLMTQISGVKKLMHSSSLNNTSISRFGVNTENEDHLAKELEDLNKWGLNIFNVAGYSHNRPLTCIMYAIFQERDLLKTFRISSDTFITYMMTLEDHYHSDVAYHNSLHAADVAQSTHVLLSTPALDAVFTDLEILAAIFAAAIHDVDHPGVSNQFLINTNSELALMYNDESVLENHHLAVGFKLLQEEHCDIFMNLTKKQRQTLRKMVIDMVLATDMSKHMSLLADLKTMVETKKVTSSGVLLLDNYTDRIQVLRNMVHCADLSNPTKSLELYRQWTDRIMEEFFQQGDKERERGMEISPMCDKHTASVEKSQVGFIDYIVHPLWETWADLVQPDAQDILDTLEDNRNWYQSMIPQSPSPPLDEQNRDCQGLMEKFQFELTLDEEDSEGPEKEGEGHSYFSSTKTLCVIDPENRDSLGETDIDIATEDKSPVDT

On to `CCOc1cc2c(cc1OC)C(c1ccc(C(=O)N3CCC(n4c(=O)c5sc(-c6ccc7c(c6)OCO7)cc5n(Cc5nnn(CC)n5)c4=O)CC3)cc1)=N[C@@H]1CCSC[C@H]21` [Example 30, 6-(1,3-benzodioxol-5-yl)-3-[1-({4-[(4aR,10bR)-9-ethoxy-8-methoxy-3,4,4a,10b-tetrahydro-1H-thiopyrano[4,3-c]isoquinolin-6-yl]phenyl}carbonyl)piperidin-4-yl]-1-[(2-ethyl-2H-tetrazol-5-yl)methyl]thieno[3,2-d]pyrimidine-2,4(1H,3H)-dione], for which the IC50 at human PDE5 is less than 0.01 µM; at PDE4B1 it was 0.001 to 0.01 µM.
With `CCOc1cc2c(cc1OC)C(c1ccc(C(=O)N3CCC(n4c(=O)c5sc(-c6ccc(F)c(F)c6)cc5n(Cc5nc(CC)no5)c4=O)CC3)cc1)=N[C@@H]1CCSC[C@H]21` [Example 49, 6-(3,4-difluorophenyl)-3-[1-({4-[(4aR,10bR)-9-ethoxy-8-methoxy-3,4,4a,10b-tetrahydro-1H-thiopyrano[4,3-c]isoquinolin-6-yl]phenyl}carbonyl)piperidin-4-yl]-1-[(3-ethyl-1,2,4-oxadiazol-5-yl)methyl]thieno[3,2-d]pyrimidine-2,4(1H,3H)-dione], the IC50 is less than 0.01 µM at human PDE5 and 0.001 to 0.01 µM on PDE4B1.
For `CCOc1cc2c(cc1OC)C(c1ccc(C(=O)N3CCC(n4c(=O)c5sc(-c6ccccc6)cc5n(Cc5nnn(CC)n5)c4=O)CC3)cc1)=NC1CC[S+]([O-])CC21` (single isomer, unassigned) [Example 24] the same measures were less than 0.01 µM and greater than 0.01 µM.
With `CCOc1cc2c(cc1OC)C(c1ccc(C(=O)N3CCC(n4c(=O)c5sc(-c6ccccc6)cc5n(Cc5nnc(C(C)(C)C)o5)c4=O)CC3)cc1)=N[C@@H]1CCSC[C@H]21` [Example 58, 1-[(5-tert-butyl-1,3,4-oxadiazol-2-yl)methyl]-3-[1-({4-[(4aR,10bR)-9-ethoxy-8-methoxy-3,4,4a,10b-tetrahydro-1H-thiopyrano[4,3-c]isoquinolin-6-yl]phenyl}carbonyl)piperidin-4-yl]-6-phenylthieno[3,2-d]pyrimidine-2,4(1H,3H)-dione], the values for the IC50 on human PDE5 and at PDE4B1 were greater than 0.1 µM and 0.001 to 0.01 µM, respectively.
The corresponding values for `CCOc1cc2c(cc1OC)C(c1ccc(C(=O)N3CCC(n4c(=O)c5sc(-c6ccccc6)cc5n(Cc5nc(CC)no5)c4=O)CC3)cc1)=N[C@@H]1CCSC[C@H]21` [Example 7, 3-(1-{4-[(4aR,10bR)-9-ethoxy-8-methoxy-3,4,4a,10b-tetrahydro-1H-thiopyrano[4,3-c]isoquinolin-6-yl]benzoyl}piperidin-4-yl)-1-[(3-ethyl-1,2,4-oxadiazol-5-yl)methyl]-6-phenylthieno[3,2-d]pyrimidine-2,4(1H,3H)-dione] are less than 0.01 µM and 0.001 to 0.01 µM.
For `CCOc1cc2c(cc1OC)C(c1ccc(C(=O)N3CCC(n4c(=O)c5sc(-c6ccccc6)cc5n(Cn5nnc(CC)n5)c4=O)CC3)cc1)=N[C@@H]1CCSC[C@H]21` [Example 57, 3-[1-({4-[(4aR,10bR)-9-ethoxy-8-methoxy-3,4,4a,10b-tetrahydro-1H-thiopyrano[4,3-c]isoquinolin-6-yl]phenyl}carbonyl)piperidin-4-yl]-1-[(5-ethyl-2H-tetrazol-2-yl)methyl]-6-phenylthieno[3,2-d]pyrimidine-2,4(1H,3H)-dione] the same measures were 0.01 to 0.1 µM and 0.001 to 0.01 µM.
The corresponding values for `CCOc1cc2c(cc1OC)C(c1cccc(C(=O)N3CCC(n4c(=O)c5sc(-c6ccc(F)cc6OC)cc5n(Cc5nc(COC)no5)c4=O)CC3)c1)=N[C@@H]1CCSC[C@H]21` [Example 45, 3-[1-({3-[(4aR,10bR)-9-ethoxy-8-methoxy-3,4,4a,10b-tetrahydro-1H-thiopyrano[4,3-c]isoquinolin-6-yl]phenyl}carbonyl)piperidin-4-yl]-6-(4-fluoro-2-methoxyphenyl)-1-{[3-(methoxymethyl)-1,2,4-oxadiazol-5-yl]methyl}thieno[3,2-d]pyrimidine-2,4(1H,3H)-dione] are less than 0.01 µM and 0.001 to 0.01 µM.
Regarding `CCOc1cc2c(cc1OC)C(c1ccc(C(=O)N3CCC(n4c(=O)c5sc(-c6ccccc6)cc5n(Cc5cnn(CC)c5)c4=O)CC3)cc1)=N[C@@H]1CCSC[C@H]21` [Example 17, 3-[1-({4-[(4aR,10bR)-9-ethoxy-8-methoxy-3,4,4a,10b-tetrahydro-1H-thiopyrano[4,3-c]isoquinolin-6-yl]phenyl}carbonyl)piperidin-4-yl]-1-[(1-ethyl-1H-pyrazol-4-yl)methyl]-6-phenylthieno[3,2-d]pyrimidine-2,4(1H,3H)-dione], the results for the IC50 at human PDE5 and at PDE4B1 were greater than 0.1 µM and 0.001 to 0.01 µM, respectively.
The corresponding values for `CCOc1cc2c(cc1OC)C(c1cccc(C(=O)N3CCC(n4c(=O)c5sc(-c6ccccc6)cc5n(Cc5nc(CC)no5)c4=O)CC3)c1)=N[C@@H]1CCSC[C@H]21` [Example 27, 3-[1-({3-[(4aR,10bR)-9-ethoxy-8-methoxy-3,4,4a,10b-tetrahydro-1H-thiopyrano[4,3-c]isoquinolin-6-yl]phenyl}carbonyl)piperidin-4-yl]-1-[(3-ethyl-1,2,4-oxadiazol-5-yl)methyl]-6-phenylthieno[3,2-d]pyrimidine-2,4(1H,3H)-dione] are less than 0.01 µM and 0.001 to 0.01 µM.
